Assays:
[1] = test system: psoriasis; assay: Case report: treatment of a patient with chronic psoriasis (EXAMPLE A); type: in vivo, human; conditions: person
Procedure: They had chronic psoriatic lesions of both elbows, groin, left leg, right leg, and lower back. The lesions were treated in the past with coal tar and topical steroids but not UV light. They were allergic to the excipients in the steroidal topical preparations.
After six months it had returned to the pretreatment state.

[2] = test system: arthritis; assay: Case report: patient with arthritis treated for pneumonia (EXAMPLE B); type: in vivo, human; conditions: person (Subject No 1912); 625 mg twice daily intravenously for 3 days, then 8 days oral at the same dose; taking no medications at follow up
[3] = after 625 mg twice daily for fourteen days

CC(=O)NC[C@H]1CN(c2ccc(N3CCOCC3)c(F)c2)C(=O)O1 [EXAMPLE 2, (S)-N-[[3-[3-Fluoro-4-(4-morpholinyl)phenyl]-2-oxo-5-oxazolidinyl]methyl]acetamide]
improvement in their psoriasis ([1]; 625 mg twice daily for fourteen days (IV five days, then orally nine days), onset as soon as they started taking the medication): immediate improvement
clearing of the psoriasis ([1]; 625 mg twice daily for fourteen days, no other psoriasis treatment, from the time they took the medication): complete clearing
time until psoriasis gradually began to return [1, 3]: three
time until psoriasis had returned to the pretreatment state [1, 3]: six
arthritis status stated by the patient at long term follow up [2]: arthritis was gone

Reference: EP1304107A2, “Use of oxazolidinines derivatives for treating psoriasis” (PHARMACIA & UPJOHN COMPANY, priority 1997, dated 1999)
